According to patent US12509452B2, “Substituted-isoxazoline-containing aromatic compound, preparation method therefor, herbicidal composition and use thereof” (QINGDAO KINGAGROOT CHEMICAL COMPOUND CO., LTD., priority 2019, dated 2025):

How the values were obtained:
Experiment in all cases: weeding effect in post-emergence stage
Format in all cases: in vivo
Beckmannia syzigachne = system: Beckmannia syzigachne
Method in brief: (§1)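 Weeds grown in soil-filled pots in a greenhouse, sprayed at the 2-3 leaf stage (2 weeks after sowing) with compound in acetone/Tween 80 plus methyl oleate EC (1.5 L/ha) at 500 to 7.5 g a.i./ha. Fresh-weight growth control assessed 3 weeks later, triplicate means, scored on a 0-5 scale.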

Conyza japonica = system: Conyza japonica
Method in brief: as §1

Rorippa indica = system: Rorippa indica
Method in brief: as §1

Alopecurus japonicus = system: Alopecurus japonicus
Method in brief: as §1

SMILES | weeding effect in post-emergence stage, Beckmannia syzigachne (activity level) (Beckmannia syzigachne; dose 15 g a.i./ha) | weeding effect in post-emergence stage, Conyza japonica (activity level) (Conyza japonica; dose 15 g a.i./ha) | weeding effect in post-emergence stage, Rorippa indica (activity level) (Rorippa indica; dose 15 g a.i./ha) | weeding effect in post-emergence stage, Alopecurus japonicus (activity level) (Alopecurus japonicus; dose 15 g a.i./ha) | weeding effect in post-emergence stage, Beckmannia syzigachne (activity level) (Beckmannia syzigachne; dose 125 g a.i./ha) | weeding effect in post-emergence stage, Conyza japonica (activity level) (Conyza japonica; dose 125 g a.i./ha) | weeding effect in post-emergence stage, Rorippa indica (activity level) (Rorippa indica; dose 125 g a.i./ha) | weeding effect in post-emergence stage, Alopecurus japonicus (activity level) (Alopecurus japonicus; dose 125 g a.i./ha)
CCOC(=O)[C@]1(C(F)(F)F)CC(c2cc(-n3c(=O)n(C)c(=S)n(C)c3=S)c(F)cc2Cl)=NO1 [206(S)] | 5 (Level 5: growth control rate is above 85%) | 5 (Level 5: growth control rate is above 85%) | 5 (Level 5: growth control rate is above 85%) | 5 (Level 5: growth control rate is above 85%) | – | – | – | –
CCOC(=O)[C@@]1(COC=O)CC(c2cc(-n3c(=O)cc(C(F)(F)F)n(C)c3=O)c(F)cc2Cl)=NO1 [218(S)] | 5 (Level 5: growth control rate is above 85%) | 5 (Level 5: growth control rate is above 85%) | 5 (Level 5: growth control rate is above 85%) | 5 (Level 5: growth control rate is above 85%) | – | – | – | –
CCOC(=O)[C@@]1(COC(=O)C(=O)O)CC(c2cc(-n3c(=O)cc(C(F)(F)F)n(C)c3=O)c(F)cc2Cl)=NO1 [220(S)] | 5 (Level 5: growth control rate is above 85%) | 5 (Level 5: growth control rate is above 85%) | 5 (Level 5: growth control rate is above 85%) | 5 (Level 5: growth control rate is above 85%) | – | – | – | –
COC(=O)[C@]1(OC)CC(c2cc(-n3c(=O)cc(C(F)(F)F)n(C)c3=O)c(F)cc2Cl)=NO1 [226(S)] | 5 (Level 5: growth control rate is above 85%) | 5 (Level 5: growth control rate is above 85%) | 5 (Level 5: growth control rate is above 85%) | 5 (Level 5: growth control rate is above 85%) | – | – | – | –
CCOC(=O)[C@]1(CC)CC(c2cc(-n3c(=S)cc(C(F)(F)F)n(C)c3=O)c(F)cc2Cl)=NO1 [228(S)] | – | – | – | – | 5 (Level 5: growth control rate is above 85%) | 5 (Level 5: growth control rate is above 85%) | 5 (Level 5: growth control rate is above 85%) | 5 (Level 5: growth control rate is above 85%)
CCOC(=O)[C@]1(CC)CC(c2cc(-n3c(=O)cc(C(F)(F)F)n(C)c3=S)c(F)cc2Cl)=NO1 [229(S)] | 5 (Level 5: growth control rate is above 85%) | 5 (Level 5: growth control rate is above 85%) | 5 (Level 5: growth control rate is above 85%) | 5 (Level 5: growth control rate is above 85%) | – | – | – | –
CCOC(=O)C1(C)CC(c2cc(-n3c(=O)cc(C(F)(F)F)n(C)c3=O)c(F)cc2Cl)=NO1 (stereo not drawn) [Compound 1-9] | 5 (Level 5: growth control rate is above 85%) | 5 (Level 5: growth control rate is above 85%) | 5 (Level 5: growth control rate is above 85%) | 5 (Level 5: growth control rate is above 85%) | – | – | – | –
CCOC(=O)CCC1(C)CC(c2cc(-n3c(=O)cc(C(F)(F)F)n(C)c3=O)c(F)cc2Cl)=NO1 (stereo not drawn) [Compound 1-37] | 5 (Level 5: growth control rate is above 85%) | 5 (Level 5: growth control rate is above 85%) | 5 (Level 5: growth control rate is above 85%) | 5 (Level 5: growth control rate is above 85%) | – | – | – | –
CCOC(=O)CCCC1(C)CC(c2cc(-n3c(=O)cc(C(F)(F)F)n(C)c3=O)c(F)cc2Cl)=NO1 (stereo not drawn) [Compound 1-39] | 5 (Level 5: growth control rate is above 85%) | 5 (Level 5: growth control rate is above 85%) | 5 (Level 5: growth control rate is above 85%) | 5 (Level 5: growth control rate is above 85%) | – | – | – | –
COC(=O)C1(C)CC(c2cc(-n3c(=O)n(C)c(=S)n(C)c3=O)c(F)cc2Cl)=NO1 (stereo not drawn) [Compound 1-60] | 5 (Level 5: growth control rate is above 85%) | 5 (Level 5: growth control rate is above 85%) | 5 (Level 5: growth control rate is above 85%) | 5 (Level 5: growth control rate is above 85%) | – | – | – | –
CCOC(=O)C1(C)CC(c2cc(-n3c(=O)n(C)c(=S)n(C)c3=O)c(Cl)cc2Cl)=NO1 (stereo not drawn) [Compound 1-61] | 5 (Level 5: growth control rate is above 85%) | 5 (Level 5: growth control rate is above 85%) | 5 (Level 5: growth control rate is above 85%) | 5 (Level 5: growth control rate is above 85%) | – | – | – | –
CCOC(=O)[C@]1(C)CC(c2cc(-n3c(=O)n(C)c(=S)n(C)c3=O)c(F)cc2Cl)=NO1 [Compound 1-62] | 5 (Level 5: growth control rate is above 85%) | 5 (Level 5: growth control rate is above 85%) | 5 (Level 5: growth control rate is above 85%) | 5 (Level 5: growth control rate is above 85%) | – | – | – | –
CCOC(=O)C1(C)CC(c2cc(-n3c(=O)n(CC)c(=S)n(CC)c3=O)c(F)cc2Cl)=NO1 (stereo not drawn) [Compound 1-64] | 5 (Level 5: growth control rate is above 85%) | 5 (Level 5: growth control rate is above 85%) | 5 (Level 5: growth control rate is above 85%) | 5 (Level 5: growth control rate is above 85%) | – | – | – | –
CCOC(=O)C1(C)CC(c2cc(-n3c(=O)n(C(C)C)c(=S)n(C(C)C)c3=O)c(F)cc2Cl)=NO1 (stereo not drawn) [Compound 1-65] | 5 (Level 5: growth control rate is above 85%) | 5 (Level 5: growth control rate is above 85%) | 5 (Level 5: growth control rate is above 85%) | 5 (Level 5: growth control rate is above 85%) | – | – | – | –
CCOC(=O)C1(C)CC(c2cc(-n3c(=O)n(C4CC4)c(=S)n(C4CC4)c3=O)c(F)cc2Cl)=NO1 (stereo not drawn) [Compound 1-66] | 5 (Level 5: growth control rate is above 85%) | 5 (Level 5: growth control rate is above 85%) | 5 (Level 5: growth control rate is above 85%) | 5 (Level 5: growth control rate is above 85%) | – | – | – | –
CCOC(=O)C1(C)CC(c2cc(-n3c(=O)n(C)c(=S)n(C)c3=O)c(F)cc2C(F)(F)F)=NO1 (stereo not drawn) [Compound 1-67] | 5 (Level 5: growth control rate is above 85%) | 5 (Level 5: growth control rate is above 85%) | 5 (Level 5: growth control rate is above 85%) | 5 (Level 5: growth control rate is above 85%) | – | – | – | –
CCOC(=O)C1(C)CC(c2cc(-n3c(=O)n(C)c(=S)n(C)c3=O)c(F)cc2C#N)=NO1 (stereo not drawn) [Compound 1-69] | 5 (Level 5: growth control rate is above 85%) | 5 (Level 5: growth control rate is above 85%) | 5 (Level 5: growth control rate is above 85%) | 5 (Level 5: growth control rate is above 85%) | – | – | – | –
CCCOC(=O)C1(C)CC(c2cc(-n3c(=O)n(C)c(=S)n(C)c3=O)c(F)cc2Cl)=NO1 (stereo not drawn) [Compound 1-70] | 5 (Level 5: growth control rate is above 85%) | 5 (Level 5: growth control rate is above 85%) | 5 (Level 5: growth control rate is above 85%) | 5 (Level 5: growth control rate is above 85%) | – | – | – | –
